Broadly, the Ki is a measure of affinity in units of concentration, obtained from inhibition or displacement.

Molecules are shown by their SMILES. Read-outs that look alike come from different tables or passages of the source. Bounds are passed on as bounds.

What all share (assay type): biochemical
In one test the target is EPHA2 (Homo sapiens, UniProt P29317). Put plainly: EPHA2 kinase assay, IMAP fluorescence polarization. Background: Polarisation of emitted light reports the rotation of a fluorescent probe.
In another test the target is SIK2 (Homo sapiens, UniProt Q9H0K1). Put plainly: SIK2 kinase assay, IMAP fluorescence polarization. As to conditions: 50 or 100 μM ATP; average; read-out: SIK2-AVERAGE Ki.
Another test concerns the target SIK1 (Homo sapiens, UniProt P57059). Description: SIK1 kinase assay, IMAP fluorescence polarization. The note with it: 50 or 100 μM ATP; average; read-out: SIK1-AVERAGE Ki.
The target in a further test is Abl (Homo sapiens, UniProt P00519). Description: Abl kinase assay, IMAP fluorescence polarization. The note with it: 50 or 100 μM ATP; average; read-out: Abl-AVERAGE Ki.
The target in another test is SIK3 (Homo sapiens, UniProt Q9Y2K2). Description: SIK3 kinase assay, IMAP fluorescence polarization. The note with it: 50 or 100 μM ATP; average; read-out: SIK3-AVERAGE Ki.
Another test has as its target Src (Homo sapiens, UniProt P12931). Description: Src kinase assay, IMAP fluorescence polarization. The note with it: 50 or 100 μM ATP; average; read-out: Src-AVERAGE Ki.

Src, sequence (P12931 whole entry): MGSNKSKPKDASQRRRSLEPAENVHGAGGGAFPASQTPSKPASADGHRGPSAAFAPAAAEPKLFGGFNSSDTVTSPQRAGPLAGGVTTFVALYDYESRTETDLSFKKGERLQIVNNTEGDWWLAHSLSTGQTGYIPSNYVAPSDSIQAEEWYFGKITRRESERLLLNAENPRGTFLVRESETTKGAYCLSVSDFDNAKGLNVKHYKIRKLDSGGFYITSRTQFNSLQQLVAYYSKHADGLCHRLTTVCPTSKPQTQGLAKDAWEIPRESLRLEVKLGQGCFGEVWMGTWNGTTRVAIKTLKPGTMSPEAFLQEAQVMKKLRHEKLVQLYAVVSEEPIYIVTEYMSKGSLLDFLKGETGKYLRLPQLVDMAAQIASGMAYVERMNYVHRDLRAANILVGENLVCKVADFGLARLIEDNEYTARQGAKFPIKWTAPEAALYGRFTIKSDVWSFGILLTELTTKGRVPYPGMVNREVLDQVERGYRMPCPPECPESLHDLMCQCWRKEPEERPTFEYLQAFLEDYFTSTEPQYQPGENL
EPHA2, sequence (P29317 24-976): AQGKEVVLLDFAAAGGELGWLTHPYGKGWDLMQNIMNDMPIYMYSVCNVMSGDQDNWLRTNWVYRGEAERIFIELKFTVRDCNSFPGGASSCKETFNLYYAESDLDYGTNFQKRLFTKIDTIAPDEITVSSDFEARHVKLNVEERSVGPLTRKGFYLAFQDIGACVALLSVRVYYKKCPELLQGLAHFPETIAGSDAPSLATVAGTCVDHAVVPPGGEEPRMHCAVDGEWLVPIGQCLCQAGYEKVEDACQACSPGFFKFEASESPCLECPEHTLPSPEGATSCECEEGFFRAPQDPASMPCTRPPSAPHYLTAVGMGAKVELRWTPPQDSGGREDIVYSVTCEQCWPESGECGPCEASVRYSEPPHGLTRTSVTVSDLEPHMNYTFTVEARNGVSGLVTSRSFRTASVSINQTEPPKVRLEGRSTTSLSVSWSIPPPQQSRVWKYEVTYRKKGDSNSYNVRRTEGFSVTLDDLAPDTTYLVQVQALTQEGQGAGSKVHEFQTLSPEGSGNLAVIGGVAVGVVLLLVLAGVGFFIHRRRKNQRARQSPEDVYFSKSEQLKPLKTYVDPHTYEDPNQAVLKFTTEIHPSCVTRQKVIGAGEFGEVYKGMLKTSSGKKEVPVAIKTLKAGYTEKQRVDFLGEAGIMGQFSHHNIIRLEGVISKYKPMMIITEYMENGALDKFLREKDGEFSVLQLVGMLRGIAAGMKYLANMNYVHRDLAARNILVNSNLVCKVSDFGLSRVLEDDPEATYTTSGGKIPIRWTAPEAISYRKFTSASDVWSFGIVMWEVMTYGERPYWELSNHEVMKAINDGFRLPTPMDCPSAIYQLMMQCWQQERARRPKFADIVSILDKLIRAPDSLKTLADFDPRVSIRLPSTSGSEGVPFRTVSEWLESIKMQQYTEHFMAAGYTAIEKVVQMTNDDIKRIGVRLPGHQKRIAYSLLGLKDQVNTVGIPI
SIK1, sequence (P57059 whole entry): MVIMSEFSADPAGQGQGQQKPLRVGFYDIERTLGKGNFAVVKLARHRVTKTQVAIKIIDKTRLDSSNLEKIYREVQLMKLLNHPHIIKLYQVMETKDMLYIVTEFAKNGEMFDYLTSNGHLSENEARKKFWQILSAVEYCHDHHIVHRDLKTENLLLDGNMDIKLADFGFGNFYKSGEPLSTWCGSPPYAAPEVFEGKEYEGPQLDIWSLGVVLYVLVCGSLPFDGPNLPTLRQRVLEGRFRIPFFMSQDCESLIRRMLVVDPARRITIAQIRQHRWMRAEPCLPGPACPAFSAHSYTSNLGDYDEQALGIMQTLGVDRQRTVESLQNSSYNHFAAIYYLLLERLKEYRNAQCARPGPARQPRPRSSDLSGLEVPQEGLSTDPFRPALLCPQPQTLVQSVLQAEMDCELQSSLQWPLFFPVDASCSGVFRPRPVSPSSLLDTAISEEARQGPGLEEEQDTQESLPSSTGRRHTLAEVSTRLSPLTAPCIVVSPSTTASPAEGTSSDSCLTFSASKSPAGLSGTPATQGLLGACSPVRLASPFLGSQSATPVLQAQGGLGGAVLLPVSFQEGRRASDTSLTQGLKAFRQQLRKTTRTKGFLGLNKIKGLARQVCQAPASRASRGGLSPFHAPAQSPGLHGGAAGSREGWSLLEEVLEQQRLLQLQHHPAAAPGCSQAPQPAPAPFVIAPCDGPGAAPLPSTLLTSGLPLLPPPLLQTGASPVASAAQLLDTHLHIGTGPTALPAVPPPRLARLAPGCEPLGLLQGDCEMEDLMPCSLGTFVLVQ
SIK3, sequence (Q9Y2K2 whole entry): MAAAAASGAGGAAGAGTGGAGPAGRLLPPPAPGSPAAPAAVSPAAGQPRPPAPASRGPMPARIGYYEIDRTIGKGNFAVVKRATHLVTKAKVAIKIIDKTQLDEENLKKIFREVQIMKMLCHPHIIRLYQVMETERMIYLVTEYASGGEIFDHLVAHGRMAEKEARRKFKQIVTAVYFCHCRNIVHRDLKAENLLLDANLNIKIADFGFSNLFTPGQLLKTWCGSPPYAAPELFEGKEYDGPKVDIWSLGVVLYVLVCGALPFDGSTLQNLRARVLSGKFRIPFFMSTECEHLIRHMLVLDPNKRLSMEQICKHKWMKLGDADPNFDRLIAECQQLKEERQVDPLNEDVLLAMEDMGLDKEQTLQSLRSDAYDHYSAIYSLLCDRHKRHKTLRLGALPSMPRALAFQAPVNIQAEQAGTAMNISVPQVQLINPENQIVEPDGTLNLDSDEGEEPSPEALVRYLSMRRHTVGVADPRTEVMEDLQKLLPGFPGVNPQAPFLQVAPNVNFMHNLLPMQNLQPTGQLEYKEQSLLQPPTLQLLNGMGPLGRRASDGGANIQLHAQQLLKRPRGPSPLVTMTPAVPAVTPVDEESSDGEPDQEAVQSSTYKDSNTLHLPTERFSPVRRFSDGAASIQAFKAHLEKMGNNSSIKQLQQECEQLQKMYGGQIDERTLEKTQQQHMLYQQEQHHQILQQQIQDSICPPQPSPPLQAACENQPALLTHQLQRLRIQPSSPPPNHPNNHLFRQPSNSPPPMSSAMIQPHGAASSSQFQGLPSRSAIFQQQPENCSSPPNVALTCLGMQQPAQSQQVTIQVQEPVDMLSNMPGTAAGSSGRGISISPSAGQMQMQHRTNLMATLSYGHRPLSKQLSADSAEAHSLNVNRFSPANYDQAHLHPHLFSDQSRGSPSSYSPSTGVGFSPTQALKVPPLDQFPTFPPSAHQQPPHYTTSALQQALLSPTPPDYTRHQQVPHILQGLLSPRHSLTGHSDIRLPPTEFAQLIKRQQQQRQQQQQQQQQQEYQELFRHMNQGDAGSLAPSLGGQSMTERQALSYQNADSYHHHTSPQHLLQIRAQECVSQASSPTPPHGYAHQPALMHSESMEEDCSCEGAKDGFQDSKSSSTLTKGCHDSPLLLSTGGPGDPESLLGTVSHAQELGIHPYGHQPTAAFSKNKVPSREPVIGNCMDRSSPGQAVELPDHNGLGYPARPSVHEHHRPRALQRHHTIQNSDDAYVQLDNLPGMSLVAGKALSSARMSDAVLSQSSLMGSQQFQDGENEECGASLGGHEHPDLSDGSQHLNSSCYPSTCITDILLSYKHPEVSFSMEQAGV
SIK2, sequence (Q9H0K1 whole entry): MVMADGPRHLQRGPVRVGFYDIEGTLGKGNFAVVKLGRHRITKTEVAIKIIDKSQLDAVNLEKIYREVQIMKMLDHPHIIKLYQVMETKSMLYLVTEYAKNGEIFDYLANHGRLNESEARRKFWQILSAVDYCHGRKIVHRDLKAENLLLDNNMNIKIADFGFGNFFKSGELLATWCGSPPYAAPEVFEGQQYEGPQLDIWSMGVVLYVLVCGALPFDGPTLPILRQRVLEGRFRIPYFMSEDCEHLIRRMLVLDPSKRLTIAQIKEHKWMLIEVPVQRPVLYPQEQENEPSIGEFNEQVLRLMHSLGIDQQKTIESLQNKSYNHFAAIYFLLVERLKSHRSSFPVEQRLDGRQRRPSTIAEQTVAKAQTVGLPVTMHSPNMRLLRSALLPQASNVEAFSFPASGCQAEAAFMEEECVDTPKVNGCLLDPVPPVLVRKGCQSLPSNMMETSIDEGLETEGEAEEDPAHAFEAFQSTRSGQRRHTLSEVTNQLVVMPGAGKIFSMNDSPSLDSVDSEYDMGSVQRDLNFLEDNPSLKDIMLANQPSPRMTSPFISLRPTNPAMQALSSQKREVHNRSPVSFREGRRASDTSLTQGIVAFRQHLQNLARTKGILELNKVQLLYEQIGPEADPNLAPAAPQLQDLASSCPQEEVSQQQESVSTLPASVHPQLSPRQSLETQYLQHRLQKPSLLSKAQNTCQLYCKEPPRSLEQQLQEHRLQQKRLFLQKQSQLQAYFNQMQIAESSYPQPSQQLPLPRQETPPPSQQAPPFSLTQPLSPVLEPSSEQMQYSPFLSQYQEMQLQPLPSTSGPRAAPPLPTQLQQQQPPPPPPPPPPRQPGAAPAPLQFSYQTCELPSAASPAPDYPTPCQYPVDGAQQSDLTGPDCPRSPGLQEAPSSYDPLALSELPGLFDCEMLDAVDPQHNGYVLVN

In the case of `Cc1cccc(F)c1N1Cc2cnc(N)nc2N([C@H]2CC[C@@H](N(C)C)CC2)C1=O` [Example 39, cis-7-amino-1-[4-(dimethylamino)cyclohexyl]-3-(2-fluoro-6-methyl-phenyl)-4H-pyrimido[4,5-d]pyrimidin-2-one], the Ki on EPHA2 (50 or 100 μM ATP, average) worked out at 35.8 nM; on SIK2, 0.444 nM; on SIK1 it was 1.66 nM; at Abl, 32.5 nM; at SIK3, 3.87 nM; at Src, 86 nM.

Consider `Cc1cccc(F)c1N1Cc2cnc(N)cc2N([C@@H]2CCCNC2)C1=O` [Example 48, 7-amino-3-(2-fluoro-6-methyl-phenyl)-1-[(3R)-3-piperidyl]-4H-pyrido[4,3-d]pyrimidin-2-one], for which the inhibitory constant (Ki) is 68.5 nM at EPHA2; 0.348 nM at SIK2; 1.26 nM at SIK1; above 1000 nM at Abl; 4 nM on SIK3; 132 nM at Src.

On to `CNC1CCCC(N2C(=O)N(c3c(C)cccc3F)Cc3cnc(N)cc32)C1` (stereo not drawn) [Example 57, 7-amino-3-(2-fluoro-6-methyl-phenyl)-1-[3-(methylamino)cyclohexyl]-4H-pyrido[4,3-d]pyrimidin-2-one], for which the inhibition constant (Ki) was found to be 42.6 nM at EPHA2 (50 or 100 μM ATP, average); 0.396 nM on SIK2; 1.1 nM at SIK1; 17 nM on Abl; 3.05 nM at SIK3; 61.5 nM at Src.

On to `Cc1cccc(F)c1N1Cc2cnc(N)nc2N([C@H]2CCCN(C)C2)C1=O` [Example 37, 7-amino-3-(2-fluoro-6-methyl-phenyl)-1-[(3S)-1-methyl-3-piperidyl]-4H-pyrimido[4,5-d]pyrimidin-2-one], for which the inhibition constant Ki on EPHA2 (50 or 100 μM ATP, average) stood at 25.8 nM; at SIK2 it was 0.703 nM; on SIK1, 2.5 nM; at Abl, 53.2 nM; on SIK3 it was 6.65 nM; on Src, 80.5 nM.

Take `Cc1cccc(F)c1N1Cc2cnc(N)cc2N([C@H]2CC[C@H](N(C)C)CC2)C1=O` [Example 59, trans-7-Amino-1-[4-(dimethylamino)cyclohexyl]-3-(2-fluoro-6-methyl-phenyl)-4H-pyrido[4,3-d]pyrimidin-2-one]: the Ki at EPHA2 (50 or 100 μM ATP, average) amounted to 123 nM; at SIK2, 0.1 nM; at SIK1, 0.292 nM; at Abl, 7.31 nM; on SIK3, 0.143 nM; on Src, 29.7 nM.

Take `Cc1cccc(F)c1N1Cc2cnc(N)cc2N([C@H]2CCC[C@H](N)C2)C1=O` (relative stereo) [Example 55, 7-amino-1-[(trans)-3-aminocyclohexyl]-3-(2-fluoro-6-methyl-phenyl)-4H-pyrido[4,3-d]pyrimidin-2-one]: the Ki amounted to 7.16 nM on EPHA2 (50 or 100 μM ATP, average); 0.364 nM at SIK2; 1.25 nM on SIK1; 14.3 nM at Abl; 4.71 nM at SIK3; 33 nM on Src.

In the case of `CN[C@H]1CC[C@@H](N2C(=O)N(c3c(C)cccc3F)Cc3cnc(N)nc32)CC1` [Example 60, cis-7-Amino-3-(2-fluoro-6-methyl-phenyl)-1-[4-(methylamino)cyclohexyl]-4H-pyrimido[4,5-d]pyrimidin-2-one], the Ki on EPHA2 (50 or 100 μM ATP, average) stood at 40.1 nM; on SIK2, 0.464 nM; at SIK1, 1.38 nM; at Abl it was 18 nM; at SIK3, 2.6 nM; on Src it was 73.6 nM.

In the case of `Cc1cccc(F)c1N1Cc2cnc(N)nc2N([C@@H]2CCNC2)C1=O` [Example 67, 7-amino-3-(2-fluoro-6-methyl-phenyl)-1-[(3R)-pyrrolidin-3-yl]-4H-pyrimido[4,5-d]pyrimidin-2-one], the inhibition constant (Ki) at EPHA2 (50 or 100 μM ATP, average) is 127 nM; on SIK2 it was 3.15 nM; on SIK1, 5.83 nM; on Abl, 261 nM; on SIK3, 41.3 nM; at Src, above 10000 nM.

Consider `Cc1cccc(F)c1N1Cc2cnccc2N([C@H]2CCCCNC2)C1=O` [Example 52, 3-(2-fluoro-6-methyl-phenyl)-1-[(3S)-azepan-3-yl]-4H-pyrido[4,3-d]pyrimidin-2-one], for which the Ki on EPHA2 (50 or 100 μM ATP, average) was 1520 nM; at SIK2 it was 13.7 nM; on SIK1, 42 nM; at Abl it was above 10000 nM; on SIK3, 288 nM; at Src it was above 10000 nM.

As to `CN[C@H]1CC[C@@H](N2C(=O)N(c3c(C)cccc3F)Cc3cnc(N)cc32)CC1` [Example 63, cis-7-amino-3-(2-fluoro-6-methyl-phenyl)-1-[4-(methylamino)cyclohexyl]-4H-pyrido[4,3-d]pyrimidin-2-one], the Ki worked out at 57.6 nM on EPHA2 (50 or 100 μM ATP, average); 0.676 nM on SIK2; 2.2 nM on SIK1; 11 nM on Abl; 4.71 nM at SIK3; 40.5 nM on Src.

On to `Cc1cccc(F)c1N1Cc2cnc(N)nc2N([C@@H]2CCCN(C)C2)C1=O` [Example 42, 7-Amino-3-(2-fluoro-6-methyl-phenyl)-1-[(3R)-1-methyl-3-piperidyl]-4H-pyrimido[4,5-d]pyrimidin-2-one], for which the Ki stood at 66.8 nM at EPHA2 (50 or 100 μM ATP, average); 1.52 nM on SIK2; 3.24 nM at SIK1; 241 nM at Abl; 14 nM on SIK3; 702 nM on Src.

Take `CN[C@H]1CC[C@H](N2C(=O)N(c3c(C)cccc3F)Cc3cnc(N)nc32)CC1` [Example 61, trans-7-amino-3-(2-fluoro-6-methyl-phenyl)-1-[4-(methylamino)cyclohexyl]-4H-pyrimido[4,5-d]pyrimidin-2-one]: the inhibition constant (Ki) was determined as 19.8 nM on EPHA2 (50 or 100 μM ATP, average); 0.101 nM on SIK2; 0.171 nM at SIK1; 28.7 nM on Abl; 0.28 nM at SIK3; 36.4 nM at Src.

For the compound `Cc1cccc(F)c1N1Cc2cnc(N)nc2N(C2CCC(N)C2)C1=O` (stereo not drawn) [Example 76, 7-amino-1-(3-aminocyclopentyl)-3-(2-fluoro-6-methyl-phenyl)-4H-pyrimido[4,5-d]pyrimidin-2-one], the inhibition constant Ki stood at 9.16 nM on EPHA2 (50 or 100 μM ATP, average); 0.205 nM at SIK2; 0.612 nM on SIK1; 4.22 nM on Abl; 1.18 nM on SIK3; 29.2 nM at Src.

For the compound `Cc1cccc(F)c1N1Cc2cnc(N)cc2N([C@H]2CCNC2)C1=O` [Example 78, 7-amino-3-(2-fluoro-6-methyl-phenyl)-1-[(3S)-pyrrolidin-3-yl]-4H-pyrido[4,3-d]pyrimidin-2-one], the Ki was above 1000 nM on EPHA2 (50 or 100 μM ATP, average); 1.62 nM on SIK2; 1.28 nM on SIK1; above 1000 nM at Abl; 15.4 nM on SIK3; above 1000 nM on Src.

`Cc1cccc(Cl)c1N1Cc2cnc(N)cc2N(C2CN(C)C2)C1=O` [Example 9, 7-amino-3-(2-chloro-6-methyl-phenyl)-1-(1-methylazetidin-3-yl)-4H-pyrido[4,3-d]pyrimidin-2-one]: the inhibition constant (Ki) at EPHA2 is 175 nM; on SIK2, 17.9 nM; at SIK1 it was 29.2 nM; on Abl, above 1000 nM; at SIK3, 145 nM; on Src, above 1000 nM.

The record behind these values is US12509457B2, “Bicyclic nitrogen containing heterocycles as inhibitors of salt-induced kinase SIK2” (priority 2019, dated 2025).
